The subject of test [1] is mauvaises herbes. Description: Procedure 2 d): weed control, pre-emergence. The settings on record: 4000 g/ha (procédé 2D), visual rating 20 to 24 days after spraying, vs control pots. Type of test: in vivo. An excerpt:
(§1) Des quantités appropriées des composés d'essai ont été dissoutes dans de l'acétone pour obtenir des solutions équivalant à des taux d'application de 250, 1000 ou 4000 g de composé d'essai par hectare (g/ha).
Les graines ont été semées dans des pots en matière plastique de 70 mm de côté et 75 mm de profondeur, dans de la terre non stérile provenant de Boarded Barns Farm ou un type de terre similaire provenant d'une source convenable. Les quantités de graines par pot étaient les suivantes :
Les composés de la présente invention ont été appliqués à la surface du sol, contenant les semences, de la manière décrite dans le paragraphe (a). Un seul pot de chaque plante cultivée et de chaque mauvaise herbe a été attribué à chaque traitement, en association avec des témoins n'ayant pas subi de pulvérisation et des témoins ayant subi une pulvérisation avec de l'acétone seule. Après traitement, les pots ont été maintenus dans une serre et ont été arrosés par aspersion pendant 3 jours, puis par une sous- irrigation controlée. L'évaluation visuelle des dégats infligés aux plantes cultivées a été effectuée 20 à 24 jours après pulvérisation. Les résultats ont été exprimés en pourcentage de réduction de croissance ou d'endommagement des plantes cultivées ou des mauvaises herbes, comparativement aux plantes présentes dans les pots témoins.

For test [2], the system named is mauvaises herbes. In kind it is in vivo. The settings on record: post-emergence, 4000 g/ha.
From the text: as §1
Les mauvaises herbes et les plantes cultivées ont été semées directement dans du compost de mise en pot John Innes dans des pots de 75 mm de profondeur et 70 mm de côté, sauf en ce qui concerne l'espèce du genre Amaranthus qui a été repiquée au stade de jeunes plants de semis et transférée dans les pots une semaine avant plulvérisation. Puis les plantes ont été cultivées dans la serre jusqu'à ce qu'elles soient prêtres à subir une pulvérisation avec les composés d'essai. Le nombre de plantes par pot étaient les suivants :
Les composés d'essai ont été appliqués aux plantes de la manière décrite dans le paragraphe (a). Un seul pot de chaque espèce de plante cultivée et de chaque espèce de mauvaise herbe a été attribué à chaque traitement, en association avec des témoins n'ayant pas subi de pulvérisation et des témoins ayant subi une pulvérisation avec de l'acétone seule.
Après traitement, les pots ont été maintenus dans une serre et ont été arrosés une fois par aspersion au bout de 24 heures, puis par sous - irrigation contrôlée. L'évaluation visuelle des dégâts infligés aux plantes cultivées et de la destruction des mauvaises herbes a été effectué 20 à 24 jours après pulvérisation. Les résultats ont été exprimés en pourcentage de réduction de croissance ou d'endommagement des plantes cultivées ou des mauvaises herbes, comparativement aux plantes présentes dans les pots témoins.

On to `Cc1ccc2c(nc(-c3ncccc3C(=O)O)n2S(=O)(=O)N(C)C)c1C` [compound 91], for which, in test [1], the “réduction de la croissance d'une ou plusieurs des espèces de mauvaises herbes” value is on record as at least 90%. Further, the “destruction d'une ou plusieurs des espèces de mauvaises herbes” value in test [2] was at least 90%.

Take `Cc1ccc(C(=O)O)c(-c2nc3ccccc3n2S(=O)(=O)N(C)C)n1` [compound 93]: in test [1], the “réduction de la croissance d'une ou plusieurs des espèces de mauvaises herbes” value is at least 90%. In addition, the “destruction d'une ou plusieurs des espèces de mauvaises herbes” value in test [2] is given as at least 90%.

With `C#CCOC(=O)c1cccnc1-c1nc2ccccc2n1S(=O)(=O)N(C)C` [compound 99], the “réduction de la croissance d'une ou plusieurs des espèces de mauvaises herbes” value in test [1] is reported as at least 90%. In addition, the “destruction d'une ou plusieurs des espèces de mauvaises herbes” value in test [2] is given as at least 90%.

On to `CCCCCCOC(=O)c1cccnc1-c1nc2ccccc2n1S(=O)(=O)N(C)C` [compound 103], for which, in test [1], the “réduction de la croissance d'une ou plusieurs des espèces de mauvaises herbes” value is listed as at least 90%. Further, in test [2], the “destruction d'une ou plusieurs des espèces de mauvaises herbes” value is at least 90%.

Values taken from patent EP0429372A1, “2-Azolyl nicotinate derivatives as herbicides” (RHONE-POULENC AGROCHIMIE, priority 1989, dated 1991).
